US20090074845A1, “TRANSDERMAL ACTIVE PRINCIPLE DELIVERY MEANS” (priority 2005, published 2009)
≈ marks a conversion by molar mass, not a printed value. Where two headings read alike, the source gives them in different places.

Experiments:
[1] = test system: Herpes simplex virus (HSV); format: cell-based
Protocol: […]. The cardiac glycosides Digoxin, Digitoxin, Lanoxin and Strophanthin G were also tested.
Using Herpes simplex virus (HSV), 50% plaque inhibitory dose (1D50) were established using the standard plaque inhibition assay. Various solvents were required to facilitate testing and these were sometimes detrimental to tissue culture, depending upon their concentration. […]; experimental conditions in which solvent toxicity was excluded.
(§1) These compounds (Acetazolamide, Tolbutamide and Hydrochiorthiazide) were further tested using alternative solvents in the same test system (ie the plaque inhibition assay) and others (Bumetanide, Torasemide, Tolbutamide and Hydrochlothiazide) in a more sensitive test for ICVT activity in which the effects on virus yields were determined.

[2] = test system: Herpes simplex virus (HSV); experiment: Comparative ICVT-ivities of Digoxin, Digitoxin and Lanoxin; format: cell-based; details: for ID50: 250 ug per ml stock solutions, powder in 70% ethanol, Lanoxin in 10% ethanol; for ICVT-ivity of saturated solution compared with standard: saturated solutions in 90% ethanol
[3] = test system: Varicella Zoster Virus (Ellen strain)
[4] = Drug permeation through porcine ear skin (Franz diffusion cells)
[5] = patches F:D 1:1 across pig skin
Protocol: The ears were washed under running water and full-thickness dorsal skin was separated from the cartilage via blunt dissection using a scalpel, then hair was removed using an electric razor. The skin was cut into samples of approximately 2 cm^2 and visually inspected to ensure that each piece was free from abrasions and blood vessels. Specimens were then stored in a crease free state on aluminium foil at −20° C. until required.
The skin samples were removed from the freezer and left to fully defrost. The donor and receptor compartments of Franz-type diffusion cells (see FIG. 13) were greased, to provide a tight seal and prevent any leakage from the receptor phase. The polymer-lined paper was removed from the patches to expose one side and firmly pressed centrally onto the surface of each piece of skin. After adhesion was established, the skin was mounted onto the flange of a receptor compartment (nominal volume 2.5 ml) of the diffusion sell, ensuring that the patch was placed directly over the flange aperture. […]
D and F were detected using an ultraviolet (UV) detector set at wavelength 220 nm. […]
Chromatogram peaks were integrated manually, and the data corrected for dilution effects. Cumulative release was determined and plotted against the square route of time to determine release rates. Cumulative permeation data were determined and plotted against time to order to obtain flux. […]

MRC5 cells [6] = experiment: MRC5 cell morphology (phase contrast microscopy); details: Furosemide 1.0 mg/ml; Digoxin 0.05 ug/ml; combined dosage at individual ID 50; 72 hours
Herpes simplex virus = experiment: 50% plaque inhibitory concentration, Herpes simplex virus in MRC5
[7] = cited from earlier work
Varicella-Zoster virus = experiment: 50% plaque inhibitory concentration, Varicella-Zoster virus in MRC5
[8] = Diffusional release of D and F from Collodions; format: physicochemical
Protocol: Drug mix (for composition see table 2) 0.02 g (a stock was made) was weighted on an analytical balance (accurate to 5 decimal places) and added directly to 10 ml of Collodion and 10 ml of ethanol in a McCartney bottle. The molar ratios used were F:D; 1:1, 1:2.5 (2:5) and 1:10 because a smaller amount of drug mix was used, compared to the drug-in-adhesive and this allowed measurable amounts of F to be used. Each of the McCartney bottles was vortexed for three minutes and left to rotate on a blood serum rotator overnight, to ensure that the mixture was homogeneous and that any air bubbles present had dispersed. Control Collodions were also prepared by the same method, however, no drug mix was added.
Different molar ratios of the two drugs were used to determine affect upon release rate and the extent of the release of each drug. The Collodion, 200 μl, was dispensed to the bottom of general 7 ml glass screw cap vials using a Gilson Pipette and left to dry for three hours. Then 2 ml of dissolution medium, again de-gassed EtOH/water 10:90, was added to each vial. The amount of receptor phase sampled and replenished was 200 μl, with a total of five replicates performed for each treatment.
The injection volume of each sample was 20 μl. […] Data were acquired using Agilent software.

[9] = Solubility of the drugs in a range of solvents
Protocol: A study was performed that measure the solubility of the drugs in a range of solvents.

[10] = Diffusional release of D and F from drug-in-adhesive patches; format: physicochemical
MRC5 cells [11] = experiment: MRC5 cell replication; details: Furosemide 1.0 mg/ml; Digoxin 0.05 ug/ml; both at VZV ID50 concentrations; 72 hours
Adenovirus = experiment: 50% plaque inhibitory concentration, Adenovirus in A549; details: unidentified adenovirus
[12] = test system: type 2 herpes simplex strain 3345; experiment: Inhibition of HSV2 replication in African green monkey kidney cells (Example 3); format: cell-based, herpes simplex virus; details: for inhibition at 15 µg/mL: Digoxin 15 mcg/ml; for inhibition at 15 µg/mL / inhibition at 30 µg/mL: Furosemide 0 mg/ml; for inhibition at 30 µg/mL: Digoxin 30 mcg/ml; for inhibition at 500 µg/mL / inhibition at 1000 µg/mL: Digoxin 0 mcg/ml, read-out: Inhibition of virus replication; for inhibition at 500 µg/mL: Furosemide 0.5 mg/ml; for inhibition at 1000 µg/mL: Furosemide 1.0 mg/ml
From the text: The compositions were applied to different types of vero cells (African green monkey kidney cells and BHK1 cells) and infected with type 2 herpes simplex virus (strains 3345 and 180) at low, intermediate, and high multiplicities of infection (MOI). Inhibition of virus replication was scored on the scale:
The following results were obtained using African green monkey kidney cells and type 2 herpes simplex strain 3345: […]

[13] = Drug release from Glue 1 mass-ratio patches into mobile phase
[14] = 72 hours
Protocol: The receptor fluid was stirred continuously to ensure a homogenous receptor solution.
The drug that accumulated in the skin was also measured. The drug that was present in a 2 cm diameter cross section of skin was calculated for all four formulations.

MRC5 cells [15] = details: uninfected cells; drug(s) at VZV ID 50 concentrations
Cytomegalovirus = experiment: 50% plaque inhibitory concentration, Cytomegalovirus in MRC5
[16] = test system: Herpes simplex virus (HSV); experiment: HSV virus yield test for ICVT activity; format: cell-based
Protocol: as §1

[17] = Human alphaherpesvirus 2, read-out: Inhibition of virus replication, HIGH MOI HSV2
[18] = Human alphaherpesvirus 2, read-out: Inhibition of virus replication, LOW MOI HSV2
[19] = Human alphaherpesvirus 2, HIGH MOI HSV2
[20] = Human alphaherpesvirus 2, INT. MOI HSV2
[21] = Human alphaherpesvirus 2, LOW MOI HSV2

CC(=O)Nc1nnc(S(N)(=O)=O)s1 [Acetazolamide]
ICVT activity (in words) ([1]; HSV plaque inhibition assay): borderline

C[C@H]1O[C@@H](O[C@H]2[C@@H](O)C[C@H](O[C@H]3[C@@H](O)C[C@H](O[C@H]4CC[C@@]5(C)[C@H](CC[C@@H]6[C@@H]5CC[C@]5(C)[C@@H](C7=CC(=O)OC7)CC[C@]65O)C4)O[C@@H]3C)O[C@@H]2C)C[C@H](O)[C@@H]1O [Digitoxin]
ICVT activity (in words) ([1]; HSV plaque inhibition assay): potent ICVT activity | ID50 [2]: 30 ng per ml | ICVT-ivity of saturated solution compared with standard [2]: more effective than Digoxin

C[C@H]1O[C@@H](O[C@H]2[C@@H](O)C[C@H](O[C@H]3[C@@H](O)C[C@H](O[C@H]4CC[C@@]5(C)[C@H](CC[C@@H]6[C@@H]5C[C@@H](O)[C@]5(C)[C@@H](C7=CC(=O)OC7)CC[C@]65O)C4)O[C@@H]3C)O[C@@H]2C)C[C@H](O)[C@@H]1O [Digoxin]
inhibition [3]: ~50% | loading dose required ([4]; for flux of 1.04 μg per cm^2 per hour (25 μg per day per cm^2)): 6004.5 μg per cm^3 | initial concentration within the patch for the flux to be greater than zero ([4]; from plot of patch concentration vs steady state flux through skin): 804.5 µg/mL | Virus particles per cell (feline herpesvirus; Feline herpes virus, drug(s) at IC50, No Drug 50): 0.75 | remaining low level of virus replication (feline herpesvirus; feline herpesvirus, drug at IC50): 0.5% | production of infectious virus reduced by (feline herpesvirus; feline herpesvirus, drug(s) at IC50): 98.5% | Apparent flux maximum [5]: 3.499 μgcm^−2 h^−1 | Q24 permeation % ([5]; % of loading): 0.12% | effect on MRC5 cell morphology (MRC5 cells [6]): no adverse effect on cell morphology | mass/area that permeated the skin (Collodion): 8.02 μg cm^−2 | Apparent maximum flux (Collodion F:D 1:1 across pig skin): 0.313 μgcm^−2 h^−1 | Q24 permeation % (Collodion F:D 1:1 across pig skin, % of loading): 5.39% | AMF (Collodion, calculated between 12-24 hr): 0.313 μg cm^−2 h^−1 | IC50 (Herpes simplex virus; MRC5, read-out: Digixin IC50): 0.025 µg/mL (≈ 0.032 µM) | ICVT activity (in words) [1]: potent ICVT activity | solubility ([7]; in diluted (50%) alcohol and in chloroform): slightly soluble | solubility ([7]; in pyridine): freely soluble | solubility ([7]; in water and in ether): practically insoluble | IC50 (Varicella-Zoster virus; Human alphaherpesvirus 3, MRC5, read-out: Digixin IC50): 0.05 µg/mL (≈ 0.064 µM) | maximal dose of digoxin released ([8]; from Collodion after 24 hr): ~34.01 μg cm^−2 | solubility ([9]; Solvent Methanol): 8200 µg/mL (≈ 10500 µM) | solubility ([9]; organic solvent or mixture, Solubility, Solvent Ethanol): 5080 µg/mL (≈ 6500 µM) | solubility ([9]; organic solvent or mixture, Solubility, Solvent Ethyl acetate): 20400 µg/mL (≈ 26100 µM) | maximum mass/area of digoxin released (maximal dose) [10]: ~136.18 μgcm^−2 | uninfected MRC5 cell replication (MRC5 cells [11]): replicated to normal yields | IC50 (Adenovirus; A549, read-out: Digixin IC50): 0.015 µg/mL (≈ 0.0192 µM) | inhibition at 15 µg/mL [12, 17]: 0% | inhibition at 30 µg/mL [12, 17]: 0% | inhibition at 15 µg/mL ([12]; Human alphaherpesvirus 2, read-out: Inhibition of virus replication, INT. MOI HSV2): 0% | inhibition at 15 µg/mL [12, 18]: 0% | inhibition at 30 µg/mL [12, 18]: 60% | ID50 [2]: 60 ng per ml | ICVT-ivity of saturated solution compared with standard [2]: as effective as Lanoxin | permeation coefficient for the patch [13]: 0.16 ×10⁻⁶ cm/s | concentration at which the skin was saturated [14]: 12.73 μg/cm^2 | concentration at which the skin was saturated ([14]; 2 cm diameter skin section): 40 ug over 3.14 cm^2 | MRC5 cell metabolism (MTT assay) (MRC5 cells [15]): normal levels of metabolism | IC50 (Cytomegalovirus; Human betaherpesvirus 5, MRC5, read-out: Digixin IC50): 0.02 µg/mL (≈ 0.0256 µM)

NS(=O)(=O)c1cc(C(=O)O)c(NCc2ccco2)cc1Cl [Furosemide, 4-chloro-N-furfuryl-5-sulfamoylanthranilic acid]
IC50 (Herpes simplex virus; MRC5, read-out: Furosemide IC50): 600 µg/mL (≈ 1810 µM) | ICVT activity (in words) ([1]; HSV plaque inhibition assay): potent ICVT activity | IC50 (Varicella-Zoster virus; Human alphaherpesvirus 3, MRC5, read-out: Furosemide IC50): 500 µg/mL (≈ 1510 µM) | Maximal dose released (furosemide) ([8]; from Collodion after 48 hr): ~6.02 μg cm^−2 | IC50 (Adenovirus; A549, read-out: Furosemide IC50): 300 µg/mL (≈ 907 µM) | inhibition at 500 µg/mL [12, 19]: 0% | inhibition at 1000 µg/mL [12, 19]: 40% | inhibition at 500 µg/mL [12, 20]: 20% | inhibition at 1000 µg/mL [12, 20]: 60% | inhibition at 500 µg/mL [12, 21]: 20% | inhibition at 1000 µg/mL [12, 21]: 60% | IC50 (Cytomegalovirus; Human betaherpesvirus 5, MRC5, read-out: Furosemide IC50): 600 µg/mL (≈ 1810 µM)

NS(=O)(=O)c1cc2c(cc1Cl)NCNS2(=O)=O [Hydrochiorothiazide, Hydrochlorothiazide]
ICVT activity (in words) ([1]; HSV plaque inhibition assay): borderline | concentration at which HSV yield reduced to zero ([16]; Solvent: NaOH 1% aqueous 10 mg/ml): HSV yield reduced to zero at 600 ug/ml

C[C@@H]1O[C@@H](O[C@H]2C[C@@H](O)[C@]3(CO)[C@H]4[C@H](O)C[C@]5(C)[C@@H](C6=CC(=O)OC6)CC[C@]5(O)[C@@H]4CC[C@]3(O)C2)[C@H](O)[C@H](O)[C@H]1O [Strophanthin G]
remark on toxicity at the HSV Plaque ID50 ([1]; 1 mg/ml, Solvent: Aqueous): Cytotoxic

CCCCNC(=O)NS(=O)(=O)c1ccc(C)cc1 [Tolbutamide]
ICVT activity (in words) ([1]; HSV plaque inhibition assay): borderline | concentration at which HSV yield reduced to zero ([16]; Solvent: PEG 10 mg/ml): HSV yield reduced to zero 300 μg/ml | concentration at which HSV yield reduced to zero ([16]; Solvent: PG 10 mg/ml): HSV yield reduced to zero 300 μg/ml

Cc1cccc(Nc2ccncc2S(=O)(=O)NC(=O)NC(C)C)c1 [Torasemide]
HSV yield ([16]; at 90 μg/ml, Solvent: NaOH 1% aqueous 5 mg/ml): HSV yield unaffected at 90 μg/ml
